Source: ChEMBL document CHEMBL2010689 (J Med Chem, 2012)
Active and inactive are the calls of the source. No cut-off for these calls is given here.

Key:
[1] = Inhibition of Mek at 1 uM
[2] = target: Glycogen synthase kinase-3 beta (Homo sapiens) (UniProt P49841); assay: Inhibition of GSK3beta at 1 uM
[3] = Clearance in Sprague-Dawley rat at 0.8 mg/kg, iv; format: ADME, organism-based; set-up: dose 0.8 mg/kg, route intravenous; details: in vivo
[4] = Antitumor activity against human U251MG cells xenografted in athymic nude mouse assessed as partial tumor regression at 30 mg/kg, po bid; format: functional, U-251
[5] = Terminal half life in cynomolgus monkey at 0.5 mg/kg, iv; format: ADME, organism-based, Macaca fascicularis; set-up: dose 0.5 mg/kg, route intravenous; details: in vivo, read-out: beta t1/2 (converted)
[6] = Cmax in athymic nude mouse plasma xenografted with human U251MG cells at 30 mg/kg, po; format: ADME, organism-based, U-251; set-up: dose 30 mg/kg, route oral
[7] = Inhibition of CDK at 1 uM
[8] = target: Insulin-like growth factor 1 receptor (Homo sapiens) (UniProt P08069); assay: Inhibition of IGFR1 at 1 uM
[9] = Antiangiogenic activity in HMVEC assessed as inhibition of VEGF-induced migration; format: functional; details: Homo sapiens
[10] = Metabolic stability in monkey liver S9 fraction assessed as compound remaining after 2 hrs; format: ADME, subcellular, Macaca mulatta; details: rhesus monkey, read-out: Stability
[11] = Inhibition of MKK at 1 uM
[12] = Antitumor activity against human U251MG cells xenografted in athymic nude mouse assessed as partial tumor regression at 10 mg/kg, po bid; format: functional, U-251
[13] = Inhibition of IRK at 1 uM
[14] = target: ALK tyrosine kinase receptor (Homo sapiens, UniProt Q9UM73); assay: Inhibition of human ALK using ATP as substrate
[15] = Cmax in athymic nude mouse tumor xenografted with human U251MG cells at 30 mg/kg, po; format: ADME, organism-based, Neoplasm, U-251; set-up: dose 30 mg/kg, route oral
[16] = target: Tyrosine-protein kinase Blk (Mus musculus, UniProt P16277); assay: Inhibition of mouse BLK using ATP as substrate
[17] = Antitumor activity against human U251MG cells xenografted in athymic nude mouse assessed as partial tumor regression at 3 mg/kg, po bid; format: functional, U-251
[18] = target: Casein kinase I isoform alpha (Homo sapiens, UniProt P48729); assay: Inhibition of CK1 using ATP as substrate
[19] = Inhibition of PKC at 1 uM
[20] = Antitumor activity against human U251MG cells xenografted in athymic nude mouse assessed as tumor growth inhibition at 10 mg/kg, po bid measured on day 29 relative to control; format: functional; details: U-251, 696 h, read-out: GI
Mus musculus [21] = assay: Toxicity in athymic nude mouse bearing human A375 cells assessed as morbidity at 0.1 to 10 mg/kg, po; format: organism-based, A-375; set-up: dose 0.1-10 mg/kg, route oral; details: in vivo
[22] = Antitumor activity against human U251MG cells xenografted in athymic nude mouse assessed as complete tumor regression at 10 mg/kg, po bid; format: functional, U-251
[23] = Inhibition of JNK at 1 uM
P388 [24] = assay: Antitumor activity against mouse P388 cells xenografted in DBA/2 mouse assessed as mean survival at 30 mg/kg, po bid for 7 days followed by readministeration after 14 days; format: functional
[25] = target: Muscarinic acetylcholine receptor M4 (Homo sapiens) (UniProt P08173); details: 10 uM
Description: Inhibition of muscarinic M4 receptor at 10 uM

A-375 [26] = assay: Antitumor activity against human A375 cells xenografted in athymic nude mouse assessed as partial tumor regression at 3 mg/kg, po bid; format: functional
[27] = target: Hepatocyte growth factor receptor (Homo sapiens) (UniProt P08581); assay: Inhibition of cMET at 1 uM
[28] = Antiangiogenic activity in BAEC assessed as inhibition of FGF-induced proliferation; format: functional; details: Bos taurus
A-375 [29] = assay: Antitumor activity against human A375 cells xenografted in athymic nude mouse assessed as complete tumor regression at 10 mg/kg, po bid; format: functional
[30] = Cmax in Sprague-Dawley rat at 5 mg/kg, po; format: ADME, organism-based; set-up: dose 5 mg/kg, route oral; details: in vivo
[31] = Antiangiogenic activity in HMVEC assessed as inhibition of FGF-induced survival; format: functional, Homo sapiens
P388 [32] = assay: Antitumor activity against mouse P388 cells xenografted in DBA/2 mouse assessed as mean survival at 30 mg/kg, po bid for 14 days followed by readministeration after 7 days; format: functional
[33] = target: RAC-alpha serine/threonine-protein kinase (Homo sapiens) (UniProt P31749); assay: Inhibition of PKB at 1 uM
[34] = target: Fibroblast growth factor receptor 1 (Homo sapiens, UniProt P11362); assay: Inhibition of human FGFR1 using ATP as substrate
[35] = target: Type-1 angiotensin II receptor (Homo sapiens) (UniProt P30556); assay: Inhibition of angiotensin AT1 at 10 uM
A-375 [36] = assay: Antitumor activity against human A375 cells xenografted in athymic nude mouse assessed as tumor growth inhibition at 10 mg/kg, po bid measured on day 29 relative to control; format: functional; details: A-375, 696 h, read-out: GI
Mus musculus [37] = assay: Toxicity in athymic nude mouse bearing human U251MG cells assessed as morbidity at 1 to 30 mg/kg, po; format: organism-based, U-251; set-up: dose 1-30 mg/kg, route oral; details: in vivo
[38] = Antiangiogenic activity in HMVEC assessed as inhibition of FGF-induced proliferation; format: functional; details: Homo sapiens
A-375 [39] = assay: Antitumor activity against human A375 cells xenografted in athymic nude mouse assessed as complete tumor regression at 3 mg/kg, po bid; format: functional
[40] = target: Tyrosine-protein kinase BTK (Homo sapiens, UniProt Q06187); assay: Inhibition of human BTK using ATP as substrate
P388 [41] = assay: Antitumor activity against mouse P388 cells xenografted in DBA/2 mouse assessed as mean survival at 30 mg/kg, po bid (reference value: 14 days); format: functional
[42] = Tmax in Sprague-Dawley rat at 5 mg/kg, po; format: ADME, organism-based; set-up: dose 5 mg/kg, route oral; details: in vivo
[43] = target: Substance-K receptor (Homo sapiens) (UniProt P21452); assay: Inhibition of neurokinin NK2 receptor at 10 uM
P388 [44] = assay: Antitumor activity against mouse P388 cells xenografted in DBA/2 mouse assessed as mean survival at 30 mg/kg, po qd for 7 days followed by readministeration
Aorta = assay: Antiangiogenic activity in rat aortic rings assessed as inhibition of peak phase microvessel growth; format: functional, tissue-based
HUVEC [45] = assay: Cytotoxicity against HUVEC; format: cell-based; details: human
[46] = target: BDNF/NT-3 growth factors receptor (Homo sapiens, UniProt Q16620); assay: Inhibition of human TRK-B using ATP as substrate
[47] = target: Macrophage colony-stimulating factor 1 receptor (Homo sapiens, UniProt P07333); assay: Inhibition of human FMS using ATP as substrate
HUVEC [48] = assay: Antiangiogenic activity in HUVEC assessed as inhibition of VEGF-induced migration; format: functional, cell-based; details: Homo sapiens
P388 [49] = assay: Antitumor activity against mouse P388 cells xenografted in DBA/2 mouse assessed as mean survival at 30 mg/kg, po bid for 7 days followed by readministeration after 7 days; format: functional
[50] = Metabolic stability in mouse liver S9 fraction assessed as compound remaining after 2 hrs; format: ADME, subcellular; details: read-out: Stability

Tyrosine-protein kinase Blk, sequence (P16277 whole entry): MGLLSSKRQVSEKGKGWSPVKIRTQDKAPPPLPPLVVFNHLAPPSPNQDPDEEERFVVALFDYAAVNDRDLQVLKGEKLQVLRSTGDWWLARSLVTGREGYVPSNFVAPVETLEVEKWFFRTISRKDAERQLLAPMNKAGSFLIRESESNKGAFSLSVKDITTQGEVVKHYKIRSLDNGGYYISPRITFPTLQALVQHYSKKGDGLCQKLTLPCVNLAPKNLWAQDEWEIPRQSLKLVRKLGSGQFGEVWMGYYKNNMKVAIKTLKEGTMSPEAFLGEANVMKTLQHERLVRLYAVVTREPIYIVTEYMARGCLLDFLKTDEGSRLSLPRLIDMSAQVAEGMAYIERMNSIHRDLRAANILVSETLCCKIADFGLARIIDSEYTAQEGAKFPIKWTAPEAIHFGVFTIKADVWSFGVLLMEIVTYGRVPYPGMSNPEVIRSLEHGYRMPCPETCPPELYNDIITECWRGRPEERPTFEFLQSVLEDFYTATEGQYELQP
Tyrosine-protein kinase BTK, sequence (Q06187 whole entry): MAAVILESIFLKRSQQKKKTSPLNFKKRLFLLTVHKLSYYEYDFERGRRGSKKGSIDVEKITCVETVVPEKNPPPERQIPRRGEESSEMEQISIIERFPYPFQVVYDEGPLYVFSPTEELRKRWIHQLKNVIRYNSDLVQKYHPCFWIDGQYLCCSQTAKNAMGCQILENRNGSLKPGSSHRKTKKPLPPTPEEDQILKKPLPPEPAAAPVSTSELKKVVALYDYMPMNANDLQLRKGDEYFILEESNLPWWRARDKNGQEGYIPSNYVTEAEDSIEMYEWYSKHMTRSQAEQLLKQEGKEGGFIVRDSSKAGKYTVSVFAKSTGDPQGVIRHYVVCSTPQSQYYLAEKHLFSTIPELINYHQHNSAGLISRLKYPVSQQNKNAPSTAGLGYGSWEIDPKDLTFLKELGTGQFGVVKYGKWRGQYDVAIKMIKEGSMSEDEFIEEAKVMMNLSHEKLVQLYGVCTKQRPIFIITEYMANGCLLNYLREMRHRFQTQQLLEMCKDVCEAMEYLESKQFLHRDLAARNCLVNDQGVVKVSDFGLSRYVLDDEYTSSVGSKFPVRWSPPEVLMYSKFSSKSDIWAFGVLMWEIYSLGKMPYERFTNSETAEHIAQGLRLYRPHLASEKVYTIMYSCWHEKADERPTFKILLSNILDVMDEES
BDNF/NT-3 growth factors receptor, sequence (Q16620 whole entry): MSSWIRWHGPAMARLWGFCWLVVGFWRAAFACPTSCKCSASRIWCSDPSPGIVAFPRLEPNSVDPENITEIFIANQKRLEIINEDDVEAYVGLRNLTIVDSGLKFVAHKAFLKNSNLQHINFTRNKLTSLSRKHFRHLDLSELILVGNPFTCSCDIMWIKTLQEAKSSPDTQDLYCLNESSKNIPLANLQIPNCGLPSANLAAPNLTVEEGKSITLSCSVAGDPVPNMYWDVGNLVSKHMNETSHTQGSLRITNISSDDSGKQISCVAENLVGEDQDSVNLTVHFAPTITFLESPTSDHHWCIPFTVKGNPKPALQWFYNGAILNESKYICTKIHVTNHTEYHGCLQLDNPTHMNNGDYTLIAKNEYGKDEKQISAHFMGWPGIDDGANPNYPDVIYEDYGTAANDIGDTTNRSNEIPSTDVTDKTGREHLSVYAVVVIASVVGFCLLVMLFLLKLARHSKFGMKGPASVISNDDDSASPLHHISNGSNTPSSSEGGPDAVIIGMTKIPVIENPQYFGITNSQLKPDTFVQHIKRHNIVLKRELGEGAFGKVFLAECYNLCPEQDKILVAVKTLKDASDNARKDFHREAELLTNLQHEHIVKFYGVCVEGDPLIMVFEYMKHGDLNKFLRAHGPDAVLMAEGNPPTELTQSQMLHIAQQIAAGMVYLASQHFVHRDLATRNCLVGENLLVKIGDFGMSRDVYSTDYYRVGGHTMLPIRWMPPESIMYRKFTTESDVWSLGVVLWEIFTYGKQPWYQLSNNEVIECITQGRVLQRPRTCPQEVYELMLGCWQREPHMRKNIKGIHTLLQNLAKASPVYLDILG
Hepatocyte growth factor receptor (Homo sapiens), sequence (P08581 whole entry): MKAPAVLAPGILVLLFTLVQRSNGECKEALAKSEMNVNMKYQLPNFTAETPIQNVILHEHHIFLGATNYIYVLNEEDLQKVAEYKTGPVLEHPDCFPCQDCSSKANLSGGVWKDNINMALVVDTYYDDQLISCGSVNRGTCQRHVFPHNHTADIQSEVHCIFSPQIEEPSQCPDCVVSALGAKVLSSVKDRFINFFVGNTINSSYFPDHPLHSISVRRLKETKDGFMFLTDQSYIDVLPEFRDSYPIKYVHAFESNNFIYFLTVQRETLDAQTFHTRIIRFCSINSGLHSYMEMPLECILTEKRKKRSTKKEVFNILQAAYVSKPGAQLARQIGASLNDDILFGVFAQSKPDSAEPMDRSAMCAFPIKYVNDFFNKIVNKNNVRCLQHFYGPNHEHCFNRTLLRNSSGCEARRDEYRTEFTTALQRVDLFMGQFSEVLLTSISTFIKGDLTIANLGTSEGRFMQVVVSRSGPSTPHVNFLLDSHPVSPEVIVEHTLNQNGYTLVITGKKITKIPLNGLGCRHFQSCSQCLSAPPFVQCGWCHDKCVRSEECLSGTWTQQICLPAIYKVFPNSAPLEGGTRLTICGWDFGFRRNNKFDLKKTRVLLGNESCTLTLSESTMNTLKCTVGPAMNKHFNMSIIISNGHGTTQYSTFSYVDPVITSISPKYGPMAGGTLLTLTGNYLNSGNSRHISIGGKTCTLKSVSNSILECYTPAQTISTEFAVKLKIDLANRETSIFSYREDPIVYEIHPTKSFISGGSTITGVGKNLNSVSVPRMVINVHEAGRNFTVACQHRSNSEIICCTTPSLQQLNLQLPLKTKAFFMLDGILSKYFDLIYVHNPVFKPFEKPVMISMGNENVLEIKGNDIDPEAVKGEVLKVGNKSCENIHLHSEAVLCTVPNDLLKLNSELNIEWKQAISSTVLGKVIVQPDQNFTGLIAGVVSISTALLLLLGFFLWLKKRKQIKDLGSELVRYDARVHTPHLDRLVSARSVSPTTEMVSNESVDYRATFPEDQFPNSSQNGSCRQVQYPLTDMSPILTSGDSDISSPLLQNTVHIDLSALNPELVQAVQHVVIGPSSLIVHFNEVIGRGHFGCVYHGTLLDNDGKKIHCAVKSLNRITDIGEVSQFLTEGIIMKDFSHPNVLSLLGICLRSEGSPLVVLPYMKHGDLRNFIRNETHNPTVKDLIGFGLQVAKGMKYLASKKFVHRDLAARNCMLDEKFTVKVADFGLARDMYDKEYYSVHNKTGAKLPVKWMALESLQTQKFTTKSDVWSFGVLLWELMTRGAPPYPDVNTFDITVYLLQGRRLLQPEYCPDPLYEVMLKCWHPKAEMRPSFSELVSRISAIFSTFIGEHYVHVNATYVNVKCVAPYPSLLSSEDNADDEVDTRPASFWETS
Type-1 angiotensin II receptor (Homo sapiens), sequence (P30556 whole entry): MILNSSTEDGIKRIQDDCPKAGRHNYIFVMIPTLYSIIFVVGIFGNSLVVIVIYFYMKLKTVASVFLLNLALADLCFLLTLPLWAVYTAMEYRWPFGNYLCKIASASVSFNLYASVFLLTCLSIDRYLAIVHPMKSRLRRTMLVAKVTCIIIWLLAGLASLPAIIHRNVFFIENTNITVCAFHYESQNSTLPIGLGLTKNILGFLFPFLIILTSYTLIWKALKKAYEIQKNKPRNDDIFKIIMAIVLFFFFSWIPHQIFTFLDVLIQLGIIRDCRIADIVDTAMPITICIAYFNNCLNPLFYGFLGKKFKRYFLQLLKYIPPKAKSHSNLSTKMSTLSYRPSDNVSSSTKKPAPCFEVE
Macrophage colony-stimulating factor 1 receptor, sequence (P07333 whole entry): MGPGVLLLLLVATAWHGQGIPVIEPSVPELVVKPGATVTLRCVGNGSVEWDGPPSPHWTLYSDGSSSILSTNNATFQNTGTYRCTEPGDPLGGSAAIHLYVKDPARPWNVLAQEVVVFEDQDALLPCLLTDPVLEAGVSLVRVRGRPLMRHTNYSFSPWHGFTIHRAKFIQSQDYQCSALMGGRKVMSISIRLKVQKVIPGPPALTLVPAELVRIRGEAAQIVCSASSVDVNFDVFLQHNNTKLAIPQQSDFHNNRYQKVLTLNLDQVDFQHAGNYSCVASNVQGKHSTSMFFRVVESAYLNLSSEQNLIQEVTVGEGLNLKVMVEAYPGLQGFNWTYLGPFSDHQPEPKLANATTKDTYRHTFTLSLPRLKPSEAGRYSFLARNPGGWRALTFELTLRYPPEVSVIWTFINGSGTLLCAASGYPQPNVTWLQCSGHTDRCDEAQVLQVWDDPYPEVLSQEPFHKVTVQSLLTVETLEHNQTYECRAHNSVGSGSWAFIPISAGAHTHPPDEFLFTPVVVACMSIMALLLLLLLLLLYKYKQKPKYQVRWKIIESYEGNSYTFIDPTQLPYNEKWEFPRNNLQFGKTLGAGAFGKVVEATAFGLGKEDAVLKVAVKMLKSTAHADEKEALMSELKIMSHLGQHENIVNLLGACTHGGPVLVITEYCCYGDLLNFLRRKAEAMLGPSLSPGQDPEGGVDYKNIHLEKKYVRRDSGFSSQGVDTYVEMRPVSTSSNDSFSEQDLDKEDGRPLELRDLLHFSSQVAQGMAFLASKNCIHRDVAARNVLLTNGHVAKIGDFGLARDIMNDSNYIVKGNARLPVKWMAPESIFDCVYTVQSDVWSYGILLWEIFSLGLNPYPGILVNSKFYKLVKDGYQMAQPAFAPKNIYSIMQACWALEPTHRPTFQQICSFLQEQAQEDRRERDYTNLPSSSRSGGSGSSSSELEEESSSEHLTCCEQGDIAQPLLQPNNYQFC
Casein kinase I isoform alpha, sequence (P48729 whole entry, canonical isoform): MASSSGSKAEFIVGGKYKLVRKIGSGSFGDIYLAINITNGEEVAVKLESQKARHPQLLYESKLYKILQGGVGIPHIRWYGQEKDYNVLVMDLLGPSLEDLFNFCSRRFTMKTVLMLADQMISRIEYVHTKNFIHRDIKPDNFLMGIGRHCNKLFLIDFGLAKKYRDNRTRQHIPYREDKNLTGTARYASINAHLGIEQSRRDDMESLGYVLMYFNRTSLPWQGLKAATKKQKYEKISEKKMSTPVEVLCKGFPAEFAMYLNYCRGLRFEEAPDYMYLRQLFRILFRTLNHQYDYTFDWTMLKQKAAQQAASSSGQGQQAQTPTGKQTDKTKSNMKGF

## CC(C)Cn1c2ccc(Nc3ncccn3)cc2c2c3c(c4c(c21)CCc1nn(C)cc1-4)C(=O)NC3 [CEP-11981]
[1]
  inhibition: Active
[2]
  inhibition: Active
[3]
  clearance: 0.258 L/h/kg
[4]
  Activity: 44%
[5]
  half-life: 1.7 h
[6]
  Cmax: 1.2 µg/mL
[7]
  inhibition: Active
[8]
  inhibition: Active
[9]
  EC50: 8 nM
[10]
  remaining at 2 h: 54%
[11]
  inhibition: Active
[12]
  Activity: 20%
[13]
  inhibition: Active
[14]
  IC50: 132 nM
[15]
  Cmax: 401 ng/g
[16]
  IC50: 8 nM
[17]
  Activity: 0%
[18]
  IC50: 48 nM
[19]
  inhibition: Active
[20]
  inhibition in vivo at 10 mg/kg: 75%
Mus musculus [21]
  Activity: Non-toxic
[22]
  Activity: 0%
[23]
  inhibition: Active
P388 [24]
  MSD: 23 days
[25]
  inhibition: > 80%
A-375 [26]
  Activity: 11%
[27]
  inhibition: Active
[28]
  EC50: 8 nM
A-375 [29]
  Activity: 40%
[30]
  Cmax: 1.33 µg/mL
[31]
  EC50: 8 nM
P388 [32]
  MSD: 27.5 days
[33]
  inhibition: Active
[34]
  IC50: 13 nM
[35]
  inhibition: > 80%
A-375 [36]
  inhibition in vivo at 10 mg/kg: 98%
Mus musculus [37]
  Activity: Non-toxic
[38]
  EC50: 8 nM
A-375 [39]
  Activity: 22%
[40]
  IC50: 93 nM
P388 [41]
  MSD: 27.5 days
[42]
  Tmax: 2 h
[43]
  inhibition: > 80%
P388 [44]
  MSD: 20.5 days
Aorta
  Activity: Dose-dependent effect
  EC50: 4 nM
HUVEC [45]
  Activity: Non-toxic
[46]
  IC50: 5 nM
[47]
  IC50: 78 nM
HUVEC [48]
  EC50: 8 nM
P388 [49]
  MSD: 25 days
[50]
  remaining at 2 h: 65%
